Patent US9169254B2, “Spiroimidazolone derivative” (Chugai Seiyaku Kabushiki Kaisha, priority 2009, dated 2015)

Molecular target: T1, human PTH1 receptor (Homo sapiens, UniProt Q03431)
T1 sequence (Q03431 27-593): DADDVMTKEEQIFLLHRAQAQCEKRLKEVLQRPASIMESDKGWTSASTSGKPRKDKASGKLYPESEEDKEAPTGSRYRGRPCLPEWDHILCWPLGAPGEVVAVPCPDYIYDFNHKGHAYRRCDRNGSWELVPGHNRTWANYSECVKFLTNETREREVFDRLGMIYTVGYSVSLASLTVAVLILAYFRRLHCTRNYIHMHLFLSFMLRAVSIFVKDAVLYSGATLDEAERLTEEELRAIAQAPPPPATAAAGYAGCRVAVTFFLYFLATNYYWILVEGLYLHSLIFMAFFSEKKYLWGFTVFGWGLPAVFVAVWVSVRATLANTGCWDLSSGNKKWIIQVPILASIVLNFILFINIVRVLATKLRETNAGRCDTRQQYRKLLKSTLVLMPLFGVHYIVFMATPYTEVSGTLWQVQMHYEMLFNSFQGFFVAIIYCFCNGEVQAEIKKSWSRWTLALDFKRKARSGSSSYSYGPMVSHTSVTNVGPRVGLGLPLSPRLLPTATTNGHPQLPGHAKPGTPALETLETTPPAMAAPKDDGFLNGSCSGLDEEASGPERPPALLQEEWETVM
Assay: In vitro cAMP signal activity in HKRK-B7 cells (LLC-PK1 cells overexpressing the human PTH1 receptor)
Assay type: cell-based
Details: 0.1 µM

For Cc1cc(C(=O)N(C)C)ccc1CCS(=O)(=O)N1CCC2(CC1)N=C(Nc1ccc(C(F)(F)F)cc1)NC2=O [Compound 1396, 3,N,N-Trimethyl-4-{2-[4-oxo-2-(4-trifluoromethyl-phenylamino)-1,3,8-triaza-spiro[4.5]dec-1-ene-8-sulfonyl]-ethyl}-benzamide], the “cAMP production activity (%)” value was 133%.

Same assay, conditions: HKRK-B7 cells; compound at 1×10^−3 M; cAMP produced as percentage of that produced by hPTH(1-34) at 100 nM

Going from Cc1cc(C(=O)N(C)C)ccc1CCS(=O)(=O)N1CCC2(CC1)N=C(c1ccc(Cl)cc1F)NC2=O [Compound 129, 4-{2-[2-(4-chloro-2-fluoro-phenyl)-4-oxo-1,3,8-triaza-spiro[4.5]dec-1-ene-8-sulfonyl]-ethyl}-3,N,N-trimethyl-benzamide] to Cc1cc(C(=O)N(C)C)ccc1CCS(=O)(=O)N1CCC2(CC1)N=C(c1c(F)cccc1F)NC2=O [Compound 78, 4-{2-[2-(2,6-difluoro-phenyl)-4-oxo-1,3,8-triaza-spiro[4.5]dec-1-ene-8-sulfonyl]-ethyl}-3,N,N-trimethyl-benzamide], the “cAMP production activity (%)” value rises from 3.7% to 31%.

Compared with Cc1cc(N(C)C(N)=O)cc(C)c1/C=C/[S@TB4](=O)(=O)N1CCC2(CC1)N=C(CCCCCCCCCCCCCC(=O)O)NC2=O [Compound 1109, 14-(8-{(E)-2-[2,6-dimethyl-4-(1-methyl-ureido)-phenyl]-ethenesulfonyl}-4-oxo-1,3,8-triaza-spiro[4.5]dec-1-en-2-yl)-tetradecanoic acid], CCOC(=O)CCCCCCCCCCCC1=NC2(CCN(S(=O)(=O)/C=C/c3c(C)cc(N(C)C(N)=O)cc3C)CC2)C(=O)N1 [Compound 1132, 12-(8-{(E)-2-[2,6-dimethyl-4-(1-methyl-ureido)-phenyl]-ethenesulfonyl}-4-oxo-1,3,8-triaza-spiro[4.5]dec-1-en-2-yl)-dodecanoic acid ethyl ester] is higher in “cAMP production activity (%)” value: 29% for the first, 80% for the second.

First: O=C1NC(c2ccc(Cl)cc2Cl)=NC12CCN(S(=O)(=O)/C=C/c1cccc3c1ccn3C[C@H](O)CO)CC2 [Compound 249, 2-(2,4-dichloro-phenyl)-8-{(E)-2-[1-((S)-2,3-dihydroxy-propyl)-1H-indol-4-yl]-ethenesulfonyl}-1,3,8-triaza-spiro[4.5]dec-1-en-4-one]
Second: CC(=O)N(CCO)c1ccc(C)c(/C=C/S(=O)(=O)N2CCC3(CC2)N=C(c2cccc(OC(F)(F)F)c2)NC3=O)c1 [Compound 257, N-(2-hydroxy-ethyl)-N-(4-methyl-3-{(E)-2-[4-oxo-2-(3-trifluoromethoxy-phenyl)-1,3,8-triaza-spiro[4.5]dec-1-ene-8-sulfonyl]-vinyl}-phenyl)-acetamide]
The “cAMP production activity (%)” value of the first is higher: 71% for the first, 42% for the second.

Going from CC(=O)N(CCOCCF)c1ccc(/C=C/S(=O)(=O)N2CCC3(CC2)N=C(C2CCC(CCC(F)(F)F)CC2)NC3=O)c(C)c1 (centres unmarked) [Compound 545, N-[2-(2-fluoro-ethoxy)-ethyl]-N-[3-methyl-4-((E)-2-{4-oxo-2-[4-(3,3,3-trifluoro-propyl)-cyclohexyl]-1,3,8-triaza-spiro[4.5]dec-1-ene-8-sulfonyl}-vinyl)-phenyl]-acetamide] to CC(=O)Nc1ccc(CCS(=O)(=O)N2CCC3(CC2)N=C(C2CCC(COCC(F)(F)F)CC2)NC3=O)c(C)c1 (centres unmarked) [Compound 919, N-[3-methyl-4-(2-{4-oxo-2-[4-(2,2,2-trifluoro-ethoxymethyl)-cyclohexyl]-1,3,8-triaza-spiro[4.5]dec-1-ene-8-sulfonyl}-ethyl)-phenyl]-acetamide], the “cAMP production activity (%)” value falls from 86% to 68%.

First: O=C1NC(C2CCC(C(F)(F)F)CC2)=NC12CCN(S(=O)(=O)c1cccc(Cl)c1)CC2 (centres unmarked) [Compound 17, 8-(3-chloro-benzenesulfonyl)-2-(4-trifluoromethyl-cyclohexyl)-1,3,8-triaza-spiro[4.5]dec-1-en-4-one]
Second: O=C1NC(C2CCCCC2)=NC12CCN(S(=O)(=O)/C=C/c1ccc3[nH]ccc3c1)CC2 [Compound 178, 2-Cyclohexyl-8-[(E)-2-(1H-indol-5-yl)-ethenesulfonyl]-1,3,8-triaza-spiro[4.5]dec-1-en-4-one]
The “cAMP production activity (%)” value of the first is higher: 39% for the first, 29% for the second.

Compared with Cc1nc(C)c(C2=NC3(CCN(S(=O)(=O)CCc4ccc(C(=O)N(C)C)cc4C)CC3)C(=O)N2)s1 [Compound 102, 4-{2-[2-(2,4-dimethyl-thiazol-5-yl)-4-oxo-1,3,8-triaza-spiro[4.5]dec-1-ene-8-sulfonyl]-ethyl}-3,N,N-trimethyl-benzamide], Cc1cc(C(=O)N(C)C)ccc1CCS(=O)(=O)N1CCC2(CC1)N=C(c1ccc(C(F)(F)F)cc1)NC2=O [Compound 75, 3,N,N-trimethyl-4-{2-[4-oxo-2-(4-trifluoromethyl-phenyl)-1,3,8-triaza-spiro[4.5]dec-1-ene-8-sulfonyl]-ethyl}-benzamide] is higher in “cAMP production activity (%)” value: 23% for the first, 75% for the second.

Going from Cc1nc(C)c(S(=O)(=O)N2CCC3(CC2)N=C(C2CCCCC2)NC3=O)s1 [Compound 58, 2-cyclohexyl-8-(2,4-dimethyl-thiazole-5-sulfonyl)-1,3,8-triaza-spiro[4.5]dec-1-en-4-one] to Cc1cc(S(=O)(=O)N2CCC3(CC2)N=C(C2CCCCC2)NC3=O)c(C)s1 [Compound 64, 2-cyclohexyl-8-(2,5-dimethyl-thiophene-3-sulfonyl)-1,3,8-triaza-spiro[4.5]dec-1-en-4-one], the “cAMP production activity (%)” value rises from 39% to 45%.

Compared with Cc1cc(N(C)C(N)=O)cc(C)c1/C=C/[S@TB4](=O)(=O)N1CCC2(CC1)N=C(CCCCCCCCCCCF)NC2=O [Compound 1118, 1-(4-{(E)-2-[2-(11-fluoro-undecyl)-4-oxo-1,3,8-triaza-spiro[4.5]dec-1-ene-8-sulfonyl]-vinyl}-3,5-dimethyl-phenyl)-1-methyl-urea], Cc1cc(N(C)C(N)=O)cc(C)c1/C=C/S(=O)(=O)N1CCC2(CC1)N=C(c1cccc(OCCCC(F)(F)F)c1)NC2=O [Compound 1019, 1-[3,5-dimethyl-4-((E)-2-{4-oxo-2-[3-(4,4,4-trifluoro-butoxy)-phenyl]-1,3,8-triaza-spiro[4.5]dec-1-ene-8-sulfonyl}-vinyl)-phenyl]-1-methyl-urea] is lower in “cAMP production activity (%)” value: 79% for the first, 72% for the second.

Going from CC(=O)Nc1ccc(CCS(=O)(=O)N2CCC3(CC2)N=C(c2ccc(C#N)cc2)NC3=O)c(C)c1 [Compound 906, N-(4-{2-[2-(4-cyano-phenyl)-4-oxo-1,3,8-triaza-spiro[4.5]dec-1-ene-8-sulfonyl]-ethyl}-3-methyl-phenyl)-acetamide] to Cc1cc(C(=O)N(C)C)ccc1CCS(=O)(=O)N1CCC2(CC1)N=C(c1ccc(OC(F)(F)C(F)F)cc1)NC2=O [Compound 94, 3,N,N-trimethyl-4-(2-{4-oxo-2-[4-(1,1,2,2-tetrafluoro-ethoxy)-phenyl]-1,3,8-triaza-spiro[4.5]dec-1-ene-8-sulfonyl}-ethyl)-benzamide], the “cAMP production activity (%)” value falls from 78% to 62%.

Going from Cc1cc(C2=NC3(CCN(S(=O)(=O)CCc4c(C)cc(C(=O)N5CCC(O)(CF)CC5)cc4C)CC3)C(=O)N2)ccc1C(F)(F)F [Compound 1277, 8-{2-[4-(4-fluoromethyl-4-hydroxy-piperidine-1-carbonyl)-2,6-dimethyl-phenyl]-ethanesulfonyl}-2-(3-methyl-4-trifluoromethyl-phenyl)-1,3,8-triaza-spiro[4.5]dec-1-en-4-one] to Cc1cc(C(=O)N2CCC(O)(CF)CC2)cc(C)c1/C=C/S(=O)(=O)N1CCC2(CC1)N=C(c1ccc(F)c(OCCCC(F)(F)C(F)(F)F)c1)NC2=O [Compound 1263, 8-{(E)-2-[4-(4-fluoromethyl-4-hydroxy-piperidine-1-carbonyl)-2,6-dimethyl-phenyl]-ethenesulfonyl}-2-[4-fluoro-3-(4,4,5,5,5-pentafluoro-pentyloxy)-phenyl]-1,3,8-triaza-spiro[4.5]dec-1-en-4-one], the “cAMP production activity (%)” value falls from 95% to 73%.

Compared with Cc1cc2ccc1CCS(=O)(=O)N1CCC3(CC1)N=C(NC3=O)c1cc(cc(C(F)(F)F)c1)OCCC/C=C/COCCN(C)C2=O [Compound 1436], Cc1cc(N(C)C(=O)N(C)C)cc(C)c1/C=C/S(=O)(=O)N1CCC2(CC1)N=C(c1cccc(OC(F)(F)F)c1)NC2=O [Compound 1013, 1-(3,5-Dimethyl-4-{(E)-2-[4-oxo-2-(3-trifluoromethoxy-phenyl)-1,3,8-triaza-spiro[4.5]dec-1-ene-8-sulfonyl]-vinyl}-phenyl)-1,3,3-trimethyl-urea] is lower in “cAMP production activity (%)” value: 54% for the first, 48% for the second.

Compared with COc1cc(N(C)C(N)=O)cc(C)c1/C=C/S(=O)(=O)N1CCC2(CC1)N=C(C1CCC(C)CC1)NC2=O (centres unmarked) [Compound 728, 1-(3-Methoxy-5-methyl-4-{(E)-2-[2-(4-methyl-cyclohexyl)-4-oxo-1,3,8-triaza-spiro[4.5]dec-1-ene-8-sulfonyl]-vinyl}-phenyl)-1-methyl-urea], Cc1cc(N(CCO)C(=O)C(C)C)ccc1CCS(=O)(=O)N1CCC2(CC1)N=C(c1cccc(OC(F)(F)F)c1)NC2=O [Compound 929, N-(2-Hydroxy-ethyl)-N-(3-methyl-4-{2-[4-oxo-2-(3-trifluoromethoxy-phenyl)-1,3,8-triaza-spiro[4.5]dec-1-ene-8-sulfonyl]-ethyl}-phenyl)-isobutylamide] is lower in “cAMP production activity (%)” value: 87% for the first, 76% for the second.

Same assay, conditions: HKRK-B7 cells; compound at 1×10^−3 M; cAMP produced as percentage of that produced by hPTH(1-34) at 100 nM; 0.1 µM

In the case of Cc1cc2ccc1CCS(=O)(=O)N1CCC3(CC1)N=C(NC3=O)c1cc(cc(C(F)(F)F)c1)OCCC=CCCCCN(C)C2=O [Compound 1410], the “cAMP production activity (%)” value is reported as 51%.
